US20110294901A1, “FINELY PULVERIZED PHARMACEUTICAL COMPOSITION” (priority 2009, published 2011)

How the values were obtained:
[1] = Particle size measurement with a particle size distribution measuring device (Microtruck X100); type: physicochemical
Description: Preferably, the particles of the drug contained in the composition according to the present invention have a cumulative 50% particle diameter of not more than 1.5 μm and a cumulative 90% particle diameter of not more than 3.0 μm. More preferably, the cumulative 50% particle diameter and the cumulative 90% particle diameter are not more than 1.0 μm and not more than 2.0 μm, respectively. In the present invention, when a cumulative curve is determined by presuming the total volume of a powder population, of which the particle size distribution is analyzed, to be 100%, the particle diameter of a point at which the cumulative curve is 50% and the particle diameter of a point at which the cumulative curve is 90% are “cumulative 50% particle diameter” and “cumulative 90% particle diameter” (μm), respectively.
The diameters of drug particles obtained by the grinding can be measured by a laser diffraction/scattering-type particle size distribution measuring machine. Specifically, for example, Microtruck (tradename) sold by NIKKISO Co., Ltd. is preferred. […]
The cumulative 50% particle diameter of bulk drug particles in the fine granules in Examples 4 and 5 and Comparative Examples 3 to 5 was measured with a particle size distribution measuring device (manufacturer: NIKKISO Co., Ltd., model: Mircotruck X100).

[2] = Dissolution test (1), paddle method, 1% aqueous polysorbate 80; type: physicochemical; details: three hr after the start of the dissolution; 50 mg drug, 100 rpm, 900 mL 1% aqueous polysorbate 80
Description: A dissolution test was carried out for the suspension produced in Example 1 (grinding conditions 3) and a liquid obtained by suspending the ground bulk drug obtained in Comparative Example 1 in water.
Each of the suspensions in an amount corresponding to 50 mg of the 22β-methoxyolean-12-ene-3β,24(4β)-diol bulk drug was accurately weighed, and a test was carried out by a dissolution test method, second method (paddle method), specified in Japanese Pharmacopoeia, at a rotation speed of 100 rpm (rotation speed of paddle) using 900 mL of a 1% aqueous polysorbate 80 solution as a test solution. After 15 min, 30 min, 60 min, and 180 min from the start of dissolution, 5 mL of the test solution was collected and was filtered by a membrane filter having a pore diameter of 0.2 μm to give measurement samples. The samples were analyzed by high-performance liquid chromatography (manufacturer: Shimadzu Seisakusho Ltd., model:LC-10ATvp) to determine dissolution rate for each sample.

Row | cumulative 50% particle diameter of the ground bulk drug ([1]; ground with jet mill at 0.54 MPa, dispersed in 0.01% aqueous sodium laurylsulfate solution) [μm] | dissolution rate [2] [%] | cumulative 50% particle diameter ([1]; bulk drug before grinding) | SMILES
1 | 2.5 | 10 |  | CO[C@@H]1CC(C)(C)C[C@H]2C3=CC[C@@H]4[C@@]5(C)CC[C@H](O)[C@](C)(CO)[C@@H]5CC[C@@]4(C)[C@]3(C)CC[C@@]12C [Comparative Example 1, 22β-Methoxyolean-12-ene-3β, 24(4β)-diol]
2 |  |  | about 50 μm | CO[C@@H]1CC(C)(C)C[C@H]2C3=CC[C@@H]4[C@@]5(C)CC[C@H](O)[C@](C)(CO)[C@@H]5CC[C@@]4(C)[C@]3(C)CC[C@@]12C [22β-methoxyolean-12-ene-3β,24(4β)-diol]
